Test system: COLO320DM cells with lacO/lacR-GFP labelled DMs
Assay: Microtubule inhibitor treatment of cells with lacO/lacR-GFP labelled DMs, immunofluorescence microscopy
Type: cell-based, human
Settings: for appearance of microtubules (immunofluorescence): taxol 10 μM or vinblastine 10 μg/ml for 3 hours prior to harvesting, anti α-tubulin staining; for chromosome organization / association of DMs with chromosomes / peripheral localization of DMs on mitotic chromosomes: taxol 10 μM or vinblastine 10 μg/ml for 3 hours; for chromosome organization: DAPI counterstain; for association of DMs with chromosomes / peripheral localization of DMs on mitotic chromosomes: DMs visualized by lacR-GFP
From the text: Visualizing DM-integrated and free EBV vectors by in vivo lacR-GFP staining: One of the established cell lines, containing DMs tagged with lacO repeat, was infected with lacR-GFP retrovirus. The infected cells were subcloned by limited dilution to obtain sublines in which DMs are more uniformly labelled with lacR-GFP. For time lapse imaging, the same cell line was infected with H2B-CFP and lacR-YFP viruses simultaneously, and the double-labelled cells were subcloned by limited dilution.
Immunofluorescence staining: Cells were harvested by gentle pipetting, attached to slide glasses by cytospin (500 rpm, 1 minute, Shandon, Pittsburgh, Pa.), and fixed with 3.7% formaldehyde for 10 minutes. When indicated, cells were treated with either taxol (10 μM paclitaxel, Sigma Chemical Co., St. Louis, Mo.) or vinblastine (10 μg/ml, Sigma) for 3 hours prior to harvesting them in order to disrupt microtubules. Slides were washed with PBS three times, and treated with blocking buffer (2.5% BSA, 0.2M glycine, 0.1% TritonX-100) for 30 minutes.
Primary and secondary antibodies were diluted in the blocking buffer. Primary antibodies were rabbit anti EBNA-1 serum K67-3 (1:1000, kindly provided by Dr. Jaap Middeldorp, Free University Hospital, Amsterdam, the Netherlands), human CREST autoantiserum hACA-M (for detecting centromeres, 1:2000 dilution) (Sullivan et al., 1994), and monoclonal anti α-tubulin (for detecting microtubules, 1:2000 dilution, Sigma). Following incubation for 60 minutes at room temperature, glass slides were washed three times with PBS. Secondary antibodies were Texas-Red conjugated anti-rabbit IgG (1:500, Jackson ImmunoResearch, West Grove, Pa.), Cy5 conjugated goat anti-human IgG (1:1000, Amersham, Piscataway, N.J.), and rhodamine conjugated anti mouse IgG (1:1000, Boehringer Mannheim), respectively. Following incubation for 60 minutes at room temperature, slides were washed three times with PBS, and chromosomes were counterstained with DAPI (1 μg/ml). Fluorescence of lacR-GFP was preserved well by this protocol.
Microscopy: All images appearing in the Figures were collected using a DeltaVision microscope system (Applied Precision Inc. Issaquah, Wash.) with either a 63×/NA 1.4 or a 100×/NA 1.35 oil immersion objective. For fixed specimens (except for the images of FIG. 2), three-dimensional data sets were collected to visualize EBV vectors and DMs as they distributed in multiple focal planes. Optical sections were collected at 0.2-μm focal intervals; pixel size was 0.111 μm for 63× objective and 0.0669 μm for 100× objective. Out-of-focus contamination was removed from each optical section via deconvolution processing and two-dimensional images were created by projecting the three-dimensional data stacks using the software supplied with the DeltaVision system.
The ability to readily visualize DMs without using FISH protocol has enabled the investigation of the mechanisms that contribute to their behavior during mitosis. The possibility that DMs are held away from the spindle poles by the microtubule-mediated antipolar force, to which normal chromosome arms are also known to be subjected (Fuller, 1995; Rieder et al., 1986) was examined. DM-labelled cells were treated with either a microtubule stabilizer (taxol) or destabilizer (vinblastine). DMs and microtubules were visualized by lacR-GFP and immunofluorescence staining, respectively.

In the case of `CC(=O)O[C@H]1C(=O)[C@@]2(C)[C@H]([C@H](OC(=O)c3ccccc3)[C@]3(O)C[C@H](OC(=O)[C@H](O)[C@@H](NC(=O)c4ccccc4)c4ccccc4)C(C)=C1C3(C)C)[C@]1(OC(C)=O)CO[C@@H]1C[C@@H]2O` [taxol, paclitaxel], the “appearance of microtubules (immunofluorescence)” value is reported as “multiple aster-like structures”, the chromosome organization is reported as “completely disrupted” and the “association of DMs with chromosomes” value is reported as “still associated closely with chromosomes”. For the same compound, the “peripheral localization of DMs on mitotic chromosomes” value was “no longer attached to the periphery of clustered chromosomes”.
In the case of `CC[C@]1(O)C[C@@H]2CN(CCc3c([nH]c4ccccc34)[C@@](C(=O)OC)(c3cc4c(cc3OC)N(C)[C@H]3[C@@](O)(C(=O)OC)[C@H](OC(C)=O)[C@]5(CC)C=CCN6CC[C@]43[C@@H]65)C2)C1` [vinblastine], the “appearance of microtubules (immunofluorescence)” value is reported as “rod-like microtubules”, the chromosome organization is reported as “completely disrupted” and the “association of DMs with chromosomes” value is reported as “still associated closely with chromosomes”. For the same compound, the “peripheral localization of DMs on mitotic chromosomes” value was “no longer attached to the periphery of clustered chromosomes”.

Source: patent US20060051739A1, “Methods and composition for visualizing and interfering with chromosomal tethering of extrachromosomal molecules” (Salk Institute for Biological Studies, priority 2000, published 2006)
